The source of these data is patent US7456191B2, “N-Aryl-sulfoximine-substituted pyrimidines as CDK-and/or VEGF inhibitors, their production and use as pharmaceutical agents” (Schering AG, priority 2005, dated 2008).

For one assay, the system named is MaTu-ADR. Nature of the assay: Proliferation assay, MaTu-ADR. The assay is classed as cell-based. The note with it: Homo sapiens, 96 h; MaTu-ADR cells, 4 days, crystal violet.
For assay [1], the target named is T1, VEGF receptor tyrosine kinase-2 (Homo sapiens, UniProt P35968).
T1 construct: GST; made in house; host or cells: baculovirus-infected insect cells (Sf9)
Nature of the assay: VEGF receptor-2 kinase assay. Type of assay: biochemical. The note with it: poly-(Glu4Tyr) substrate, 8 μmol ATP, 33P filter assay; read-out: VEGF-R2 IC50. Here is the method: VEGF Receptor-2 Kinase Assay
Recombinant VEGF receptor tyrosine kinase-2 was purified as a GST fusion protein from baculovirus-infected insect cells (Sf9). Poly-(Glu4Tyr), which was used as a kinase substrate, was purchased by the Sigma Company. VEGF receptor tyrosine kinase (90 ng/measuring point) was incubated for 10 minutes at 22° C. in the presence of various concentrations of test substances (0 μm, as well as within the range of 0.001-30 μm) in 30 μl of assay buffer [40 mmol of Tris/HCl, […], 10 mmol of MgCl2, 1 mmol of MnCl2, 3 μmol of Na ortho-vanadate, 1.0 mmol of dithiothreitol, 8 μmol of adenosine trisphosphate (ATP), 27 μg/measuring point of poly-(Glu4Tyr), 0.2 μCi/measuring point of 33P-gamma ATP, 1% dimethyl sulfoxide]. The reaction was stopped by adding EDTA solution (250 mmol, pH 7.0, 10 μl/measuring point).
(§1) From each reaction batch, 10 μl was applied to P30 filter strips (Wallac Company), and non-incorporated 33P-ATP was removed by subjecting the filter strips to three washing cycles for 10 minutes each in 0.5% phosphoric acid. After the filter strips were dried for one hour at 70° C., the filter strips were covered with scintillator strips (MeltiLex™ A, Wallac Company) and baked for one hour at 90° C. The amount of incorporated 33P (substrate phosphorylation) was determined by scintillation measurement in a gamma-radiation measuring device (Wallac).

The test system of assay [2] is MCF7, hormone-independent human breast cancer cells. Nature of the assay: Proliferation assay, MCF7. The assay is classed as cell-based. The settings on record: 96 h, 4 days, crystal violet. From the text: (§2) Cultivated human tumor cells (MCF7, hormone-independent human breast cancer cells, related to ATCC HTB22; NCI-H460, human non-small-cell lung cancer cells, ATCC HTB-177; DU 145, hormone-independent human prostate cancer cells, ATCC HTB-81; MaTu-MDR, hormone-independent, multiple pharmaceutical agent-resistant human breast cancer cells, EPO-GmbH, Berlin) were flattened out at a density of about 5000 cells/measuring point, depending on the growth rate of the respective cells, in a 96-well multititer plate in 200 μl of the corresponding growth medium. After 24 hours, the cells of one plate (zero-point plate) were colored with crystal violet (see below), while the medium of the other plates was replaced by fresh culture medium (200 μl), to which the test substances were added in various concentrations (0 μm, as well as in the range of 0.01-30 μm; the final concentration of the solvent dimethyl sulfoxide was 0.5%). The cells were incubated for 4 days in the presence of test substances. The cell proliferation was determined by coloring the cells with crystal violet: the cells were fixed by adding 20 μl/measuring point of an 11% glutaric aldehyde solution for 15 minutes at room temperature. After three washing cycles of the fixed cells with water, the plates were dried at room temperature. The cells were colored by adding 100 μl/measuring point of a 0.1% crystal violet solution (the pH was set at 3 by adding acetic acid). After three washing cycles of the colored cells with water, the plates were dried at room temperature. The dye was dissolved by adding 100 μl/measuring point of a 10% acetic acid solution. The extinction was determined by photometry at a wavelength of 595 nm. The change of cell growth, in percent, was calculated by normalization of the measured values to the extinction values of the zero-point plate (=0%) and the extinction of the untreated (0 μm) cells (=100%).

The subject of assay [3] is NCI-H460, human non-small-cell lung cancer cells. Description: Proliferation assay, H460. Type of assay: cell-based. The settings on record: NCI-H460, 96 h, 4 days, crystal violet.
Description: as §2

Another assay concerns the target T2, CDK2/CycE (Homo sapiens, UniProt P24941).
T2 construct: GST; purchased ProQinase GmbH, Freiburg; host or cells: baculovirus-infected insect cells (Sf9)
Description: CDK2/CycE kinase assay. Type of assay: biochemical. The settings on record: histone IIIS substrate, 0.5 μm ATP, 33P filter assay. On the procedure:
Recombinant CDK2- and CycE-GST-fusion proteins, purified from baculovirus-infected insect cells (Sf9), were purchased by ProQinase GmbH, Freiburg. Histone IIIs, which was used as a kinase substrate, was purchased by the Sigma Company.
CDK2/CycE (50 ng/measuring point) was incubated for 15 minutes at 22° C. in the presence of various concentrations of test substances (0 μm, as well as within the range of 0.01-100 μm) in assay buffer [50 mmol of tris/HCl, pH 8.0, 10 mmol of MgCl2, 0.1 mmol of Na ortho-vanadate, 1.0 mmol of dithiothreitol, 0.5 μm of adenosine triphosphate (ATP), 10 μg/measuring point of histone IIIS, 0.2 μCi/measuring point of ^33P-gamma ATP, 0.05% NP40, 12.5% dimethyl sulfoxide]. The reaction was stopped by adding EDTA solution (250 mmol, pH 8.0, 14 μl/measuring point).
From each reaction batch, 10 μl was applied to P30 filter strips (Wallac Company), and non-incorporated ^33P-ATP was removed by subjecting the filter strips to three washing cycles for 10 minutes each in 0.5% phosphoric acid. After the filter strips were dried for one hour at 70° C., the filter strips were covered with scintillator strips (MeltiLex™ A, Wallac Company) and baked for one hour at 90° C. The amount of incorporated ^33P (substrate phosphorylation) was determined by scintillation measurement in a gamma-radiation measuring device (Wallac).

Another assay has as its target Human Carboanhydrase-2 (Homo sapiens, UniProt P00918). Description: Carboanhydrase assay. Type of assay: biochemical. The note with it: 4-nitrophenyl acetate hydrolysis, 400 nm; read-out: Inhibition of Human Carboanhydrase-2 IC50. On the procedure: 2 μl of the test compounds, dissolved in DMSO (100× the final concentration), in a concentration range of 0.03-10 μm (final), was pipetted as 4× determinations into the holes of a 96-hole microtiter plate. Holes that contained the solvent without test compounds were used as reference values (1. Holes without carboanhydrase for correction of the non-enzymatic hydrolysis of the substrate, and 2. Holes with carboanhydrase for determining the activity of the non-inhibited enzyme).
188 μl of assay buffer (10 mmol of Tris/HCl, pH 7.4, 80 mmol of NaCl), with or without 3 units/hole on carboanhydrase I or II, was pipetted into the holes of the microtiter plate.

The next assay deals with T3, CDK1/CycB (Homo sapiens, UniProt P06493).
T3 construct: GST; purchased ProQinase GmbH, Freiburg; host or cells: baculovirus-infected insect cells (Sf9)
Description: CDK1/CycB kinase assay. The settings on record: histone IIIS substrate, 0.5 μm ATP, 33P filter assay. The assay is classed as biochemical. On the procedure:
Recombinant CDK1- and CycB-GST-fusion proteins, purified from baculovirus-infected insect cells (Sf9), were purchased from ProQinase GmbH, Freiburg. Histone IIIS, used as a kinase substrate, is available commercially from the Sigma Company.
CDK1/CycB (200 ng/measuring point) was incubated for 15 minutes at 22° C. in the presence of various concentrations of test substances (0 μm, as well as within the range of 0.01-100 μm) in assay buffer [50 mmol of tris/HCl, pH 8.0, 10 mmol of MgCl2, 0.1 mmol of Na ortho-vanadate, 1.0 mmol of dithiothreitol, 0.5 μm of adenosine triphosphate (ATP), 10 μg/measuring point of histone IIIS, 0.2 μCi/measuring point of ^33P-gamma ATP, 0.05% NP40, 12.5% dimethyl sulfoxide]. The reaction was stopped by adding EDTA solution (250 mmol, pH 8.0, 14 μl/measuring point).
as §1

The test system of assay [4] is DU 145, hormone-independent human prostate cancer cells. Nature of the assay: Proliferation assay, DU145. Type of assay: cell-based. The note with it: DU-145, 96 h, 4 days, crystal violet.
Description: as §2

A value given as a limit tells only on which side of the number the result lay.

T3 sequence (P06493 whole entry): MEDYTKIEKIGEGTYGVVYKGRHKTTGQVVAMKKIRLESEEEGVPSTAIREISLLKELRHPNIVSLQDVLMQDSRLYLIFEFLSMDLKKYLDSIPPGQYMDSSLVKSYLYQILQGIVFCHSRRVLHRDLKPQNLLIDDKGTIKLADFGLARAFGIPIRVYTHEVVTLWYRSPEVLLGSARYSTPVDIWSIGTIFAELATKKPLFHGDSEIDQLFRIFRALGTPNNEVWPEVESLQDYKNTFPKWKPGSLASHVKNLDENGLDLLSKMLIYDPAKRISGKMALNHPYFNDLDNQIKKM
T3 sequence (P14635 whole entry partner): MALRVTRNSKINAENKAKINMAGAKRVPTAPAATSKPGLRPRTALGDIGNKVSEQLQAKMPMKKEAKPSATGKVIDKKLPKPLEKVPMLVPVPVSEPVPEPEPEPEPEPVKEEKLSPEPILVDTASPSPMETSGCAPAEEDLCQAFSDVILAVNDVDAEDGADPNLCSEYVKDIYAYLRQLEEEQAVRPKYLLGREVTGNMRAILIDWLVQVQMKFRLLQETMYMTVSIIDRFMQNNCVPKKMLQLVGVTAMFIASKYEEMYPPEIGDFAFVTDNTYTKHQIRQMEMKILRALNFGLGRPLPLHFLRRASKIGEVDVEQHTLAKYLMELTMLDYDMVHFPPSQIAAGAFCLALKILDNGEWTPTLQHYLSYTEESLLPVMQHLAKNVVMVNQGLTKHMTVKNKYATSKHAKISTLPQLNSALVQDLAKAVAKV
T1 sequence (P35968 20-1356): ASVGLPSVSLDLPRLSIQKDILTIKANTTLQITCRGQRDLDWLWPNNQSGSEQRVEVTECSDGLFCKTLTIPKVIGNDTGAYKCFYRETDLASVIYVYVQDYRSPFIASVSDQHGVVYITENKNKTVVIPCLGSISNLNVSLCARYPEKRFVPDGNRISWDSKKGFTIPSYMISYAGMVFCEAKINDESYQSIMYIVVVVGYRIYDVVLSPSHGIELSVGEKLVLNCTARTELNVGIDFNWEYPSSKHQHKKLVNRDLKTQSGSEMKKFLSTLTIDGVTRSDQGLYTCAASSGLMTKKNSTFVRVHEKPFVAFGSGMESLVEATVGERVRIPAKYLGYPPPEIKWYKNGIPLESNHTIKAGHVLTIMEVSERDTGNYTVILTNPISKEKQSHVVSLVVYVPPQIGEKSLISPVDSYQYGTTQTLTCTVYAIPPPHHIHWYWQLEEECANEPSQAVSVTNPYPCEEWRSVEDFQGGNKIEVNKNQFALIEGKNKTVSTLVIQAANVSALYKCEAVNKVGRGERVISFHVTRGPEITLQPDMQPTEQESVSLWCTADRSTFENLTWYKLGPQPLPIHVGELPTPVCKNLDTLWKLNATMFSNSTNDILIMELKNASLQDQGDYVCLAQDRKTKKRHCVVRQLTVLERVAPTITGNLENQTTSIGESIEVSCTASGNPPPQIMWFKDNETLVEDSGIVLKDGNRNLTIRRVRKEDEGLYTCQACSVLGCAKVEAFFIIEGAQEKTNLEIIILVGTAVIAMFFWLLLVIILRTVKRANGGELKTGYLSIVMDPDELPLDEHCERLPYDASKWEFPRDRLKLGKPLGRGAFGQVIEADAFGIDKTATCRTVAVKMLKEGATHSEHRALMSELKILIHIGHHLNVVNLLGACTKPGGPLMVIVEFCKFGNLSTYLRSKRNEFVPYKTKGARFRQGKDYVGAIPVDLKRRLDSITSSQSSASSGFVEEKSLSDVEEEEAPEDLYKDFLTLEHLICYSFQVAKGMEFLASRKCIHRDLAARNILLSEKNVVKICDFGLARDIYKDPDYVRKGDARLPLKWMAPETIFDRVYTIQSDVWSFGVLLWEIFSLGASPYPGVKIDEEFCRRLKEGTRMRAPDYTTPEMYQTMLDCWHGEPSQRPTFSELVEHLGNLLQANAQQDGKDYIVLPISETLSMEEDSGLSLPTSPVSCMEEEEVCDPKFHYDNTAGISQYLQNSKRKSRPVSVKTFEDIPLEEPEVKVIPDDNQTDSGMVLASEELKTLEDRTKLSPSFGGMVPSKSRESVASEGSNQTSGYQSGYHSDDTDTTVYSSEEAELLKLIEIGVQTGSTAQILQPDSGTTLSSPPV

Take `C[C@@H](Nc1nc(Nc2ccc(N=S(C)(C)=O)cc2)ncc1Br)C(C)(C)O` [Example 1, N-{4-[(5-Bromo-4-{[(R)-2-hydroxy-1,2-dimethylpropyl]amino}-pyrimidin-2-yl)amino]phenyl}-S,S-dimethylsulfoximide]: the IC50 (as a rule, the concentration needed to halve the response being measured) in the assay on MaTu-ADR is 0.8 µM; in assay [1] it was 0.074 µM; in assay [2], 0.4 µM; in assay [3] it was 0.5 µM; against CDK2/CycE, 0.027 µM; at Human Carboanhydrase-2 it was > 10 µM. The IC50 against CDK1/CycB came out at 0.13 µM; in assay [4], 0.6 µM.

Consider `C[C@@H](O)[C@@H](C)Nc1nc(Nc2ccc(N=S(C)(C)=O)cc2)ncc1Br` [Example 2, N-{4-[(5-Bromo-4-{[(1R,2R)-2-hydroxy-1-methylpropyl]amino}-pyrimidin-2-yl)amino]phenyl}-S,S-dimethylsulfoximide], for which the IC50 is 0.9 µM in the assay with MaTu-ADR; 0.027 µM in assay [1]; 0.6 µM in assay [2]; 0.8 µM in assay [3]; 0.011 µM against CDK2/CycE; > 10 µM on Human Carboanhydrase-2. Moreover, the IC50 at CDK1/CycB is 0.032 µM; in assay [4], 1 µM.

Take `C[C@@H](O)[C@@H](C)Oc1nc(Nc2ccc(N=S(C)(C)=O)cc2)ncc1Br` [Example 3, N-{4-[(5-Bromo-4-{[(1R,2R)-2-hydroxy-1-methylpropyl]oxy}-pyrimidin-2-yl)amino]phenyl}S,S-dimethylsulfoximide]: the IC50 with MaTu-ADR was 0.5 µM; in assay [1], 0.044 µM; in assay [2], 0.3 µM; in assay [3], 0.7 µM; against CDK2/CycE it was 0.012 µM; at Human Carboanhydrase-2 it was > 10 µM. Further, the IC50 against CDK1/CycB is 0.028 µM; in assay [4], 1 µM.

For the molecule `CC(C)[C@H](CO)Nc1nc(Nc2ccc(N=S(C)(C)=O)cc2)ncc1I` [Example 4, N-{4-[(4-{[(R)-1-(Hydroxymethyl)-2-methylpropyl]amino}-5-iodopyrimidin-2-yl)amino]phenyl}-S,S-dimethylsulfoximide], the figures for the IC50 (in assay [1]; in assay [2]; against CDK2/CycE) were 0.088 µM, 2.2 µM and 0.2 µM, respectively.

For the molecule `Cc1cccc(Nc2nc(Nc3ccc(N=S(C)(C)=O)cc3)ncc2Br)n1` [Example 5, N-[4-({5-Bromo-4-[(6-methyl-2-pyridyl)amino]pyrimidin-2-yl}amino)phenyl]-S,S-dimethylsulfoximide], the IC50 in assay [1] worked out at 0.18 µM; in assay [2], 0.7 µM; against CDK2/CycE it was 0.34 µM; against CDK1/CycB, 0.49 µM.

Consider `CS(C)(=O)=Nc1ccc(Nc2ncc(Br)c(Nc3ccccc3)n2)cc1` [Example 6, N-{4-[(4-Anilino-5-bromopyrimidin-2-yl)amino]phenyl}-S,S-dimethylsulfoximide], for which the IC50 with MaTu-ADR came to 0.3 µM; in assay [1], 0.073 µM; in assay [2], 0.5 µM; in assay [3] it was 0.4 µM; in assay [4] it was 0.3 µM.

With `C[C@H](CO)Nc1nc(Nc2ccc(N=S(C)(C)=O)cc2)ncc1[N+](=O)[O-]` [Example 7, N-{4-[(4-{[(R)-2-Hydroxy-1-methylethyl]amino}-5-nitropyrimidin-2-yl)amino]phenyl}-S,S-dimethylsulfoximide], in assay [1], the IC50 was determined as 0.2 µM.

On to `C#CCOc1nc(Nc2ccc(N=S(C)(C)=O)cc2)ncc1C(F)(F)F` [Example 9, S,S-Dimethyl-N-(4-{[4-(prop-2-yn-1-yloxy)-5-(trifluoromethyl)pyrimidin-2-yl]amino}phenyl)sulfoximide], for which the IC50 in assay [1] was 0.14 µM; against CDK2/CycE it was 0.26 µM; against CDK1/CycB, 0.67 µM.

Consider `C#CCNc1nc(Nc2ccc(N=S(C)(C)=O)cc2)ncc1C(F)(F)F` [Example 10, S,S-Dimethyl-N-(4-{[4-(prop-2-yn-1-ylamino)-5-(trifluoromethyl)pyrimidin-2-yl]amino}phenyl)sulfoximide], for which the IC50 in assay [1] worked out at 0.16 µM; against CDK2/CycE it was 0.22 µM; on CDK1/CycB it was 0.4 µM.

Take `CS(C)(=O)=Nc1ccc(Nc2ncc(Br)c(NC3(CO)CCCC3)n2)cc1` [Example 11, N-{4-[(5-Bromo-4-{[1-(hydroxymethyl)cyclopentyl]amino}pyrimidin-2-yl)amino]phenyl}-S,S-dimethylsulfoximide]: the IC50 in assay [1] worked out at 0.054 µM; on CDK2/CycE, 0.68 µM.

Turning to `CS(C)(=O)=Nc1ccc(Nc2ncc(Br)c(N[C@H]3CCCC[C@@H]3O)n2)cc1` [Example 12, N-{4-[(5-Bromo-4-{[(1S,2S)-2-hydroxycyclohexyl]amino}pyrimidin-2-yl)amino]phenyl}S,S-dimethylsulfoximide], the half-inhibitory concentration (IC50) in assay [1] was determined as 0.28 µM; against CDK2/CycE, 0.46 µM.

As for `CS(C)(=O)=Nc1ccc(Nc2ncc(Br)c(N[C@@H]3CCOC3)n2)cc1` [Example 13, N-[4-({5-Bromo-4-[(R)-(2,3,4,5-tetrahydrofuran-3-yl)amino]pyrimidin-2-yl}amino)phenyl]-S,S-dimethylsulfoximide], in assay [1], the IC50 was determined as 0.042 µM.
